Patent publication US20040191168A1, “Tumor cell killing by cell cycle checkpoint abrogation combined with Inhibition of the classical mitogen activated protein (map) kinase pathway” (priority 2000, published 2004)
Values joined by “and” are separate entries in the source; they are usually repeats but may differ in a detail not shown here. Equal values may be shown once.

Assays:
U937 cells [1] = assay: Morphological assessment of apoptosis (Wright-Giemsa cytospins) in U937 cells; format: cell-based, human; settings: U937 cells; for apoptosis (cell death): UCN-01 150 nM, FIG. 1A
Description: Experimental Format. All of the experiments were performed using logarithmically growing cells (3-5×10^5 cells/ml). Cell suspensions were placed in sterile 25 cm^2 T-flasks (Corning, Corning, N.Y.) and incubated with MEK or PKC inhibitors for 30 min at 37° C. At the end of this period, UCN-01 (or in some cases, caffeine) was added to the suspension, and the flasks were placed in 37° C./5% CO2 incubator at various intervals, generally 18 h. In some studies, the p38 MAP kinase inhibitor SB203580 was added concurrently with MEK inhibitors. After drug treatment, cells were harvested and subjected to further analysis as described below.
Analysis of Apoptosis. […] For each condition, 5 to 10 randomly selected fields/condition were evaluated, encompassing at least 500 cells (Vrana and Grant, 2001). To confirm the results of morphological analysis, in some cases cells were also evaluated by TUNEL staining (Gorczyca et al., 1993) and assessment of oligonucleosomal DNA fragmentation of total DNA. DNA fragmentation was analyzed by 1.8% agarose gel electrophoresis as described previously (Jarvis et al., 1994). For TUNEL staining, cytocentrifuge preparations were obtained and fixed with 4% formaldehyde. The slides were treated with acetic acid/ethanol (1:2), stained with terminal transferase reaction mixture containing terminal transferase reaction buffer, 0.25 units/ ml terminal transferase, 2.5 mM CoCl2, and 2 pmol fluorescein-12-dUTP (Boehringer Mannheim, Indianapolis, Ind.), and visualized using fluorescence microscopy.

U937 cells [2] = assay: Soft agar clonogenic assay in U937 cells; format: cell-based, human; settings: agents alone, UCN-01 150 nM, PD184352 10 μM, 18 h
Description: Clonogenic Assay and Cell Proliferation Assays. Colony formation after drug treatment was evaluated using a soft agar cloning assay as described previously (Blasina et al, 1999). Briefly, cells were washed three times with serum-free RPMI medium. Subsequently, 500 cells/well were mixed with RPMI medium con-taining 20% FBS and 0.3% agar and plated on 12-well plates (three wells/ condition). The plates were then transferred to a 37° C./5% CO2, fully humid-ified incubator. After 10 days of incubation, colonies, consisting of groups 5 of 50 cells, were scored using an Olympus Model CK inverted microscope, and colony formation for each condition was calculated in relation to values obtained for untreated control cells. For cell viability assays, CellTiter 96 AQueous One Solution (Promega, Madison, Wis.) was used according to the manufacturer's instructions, and the absorbance at 490 nm was recorded using a 96-well plate reader (Molecular Devices, Sunnyvale, Calif.).

U937 cells [3] = assay: Cell cycle analysis (propidium iodide flow cytometry) in U937 cells; format: cell-based, human; settings: 18 h, UCN-01 150 nM, PD184352 10 μM, FIG. 3A
Description: (§1) Cell Cycle Analysis and S-phase Content. Cells (2×10^6) were pelleted at 4° C., resuspended, fixed at 4° C. with 67% ethanol overnight, and treated on ice with a propidium iodide solution containing 3.8 mM Na citrate, 0.5 mg/ml RNase A (Sigma Chemical Co.), and 0.01 mg/ml propidium iodide (Sigma Chemical Co.) for 3 h. Cell cycle analysis was performed by flow cytometry using Verity Winlist software (Topsham, Me.). Incorporation of BrdUrd was monitored to evaluate S-phase content. For each condition, 2 3 10 6 cells (cell density 5 5 3 10 5 /ml) were incubated with […] BrdUrd for 30 min at 37° C. After washing twice with 1% BSA/PBS, the cells were resuspended in 70% ethanol and fixed for 30 min on ice. The BrdUrd-labeled cells were denatured and nuclei released by incubation with 2 N HCl/0.5% Triton X-100 for 30 min at room temperature. After centrifugation, the pellet was resuspended in 0.1 M […] (pH 8.5) to neutralize the acid. […] After washing once with 0.5% Tween 20/1% BSA/PBS, the cells were resuspended in PBS containing […] propiditun iodide and analyzed by flow cytometry. The percentage of S-phase cells was determined by measuring BrdUrd FITC-positive part in a dot plot of FL-3 (red fluorescence) against FL-1 (green fluorescence).

U937 cells [4] = assay: S-phase content by BrdUrd incorporation in U937 cells; format: cell-based, human; settings: 12 and 18 h, UCN-01 150 nM, PD184352 10 μM, FIG. 3B
Description: as §1

DU145 cells = assay: Colony forming (clonogenic) assay in DU145 cells; format: cell-based, human; settings: 25 μM PD98059, 150 nM UCN-01, replated 48 h, ± SEM
Description: (§2) Colony forming (clonogenic) assay. Cells were plated 36 h prior to experimentation. Cells were pre-treated with MEK1/2 inhibitor as indicated, 2 h prior to exposure. Cells were irradiated (2 Gy). After a further 48 h, cells were isolated by tryptic digestion and single cell suspensions plated on Linbro® plates at densities of 500 cells/well and 1000 cells/well. Colony formation was defined as a colony of 50 cells or greater, 10 days after plating.

MCF7 cells = assay: Colony forming (clonogenic) assay in MCF7 cells; format: cell-based, human; settings: 25 μM PD98059, 150 nM UCN-01, replated 48 h, ± SEM
Description: as §2

T47D cells = assay: Colony forming (clonogenic) assay in T47D cells; format: cell-based, human; settings: mock irradiated, 25 μM PD98059, 150 nM UCN-01, replated 48 h, ± SEM
Description: as §2

MDA-MB-231 cells = assay: Colony forming (clonogenic) assay in MDA-MB-231 cells; format: cell-based, human; settings: MDA-MB-231 (MDA), 25 μM PD98059, 150 nM UCN-01, replated 48 h, ± SEM
Description: as §2

[5] = Phase I and pharmacokinetic studies (Fuse et al., 1999); cited from earlier work

| SMILES | Apoptotic cells (%) (U937 cells [1]; 18 h, PD184352 10 μM, GFX 1 μM, safingol 2 μM, mean ± SD) | apoptosis (cell death) (U937 cells [1]; 18 h, PD184352 10 μM) [%] | reduction of clonogenic survival (colony formation) (U937 cells [2]) | cell cycle distribution (U937 cells [3]) | number of BrdUrd-positive (S-phase) cells (U937 cells [4]) | percentage of apoptotic cells (U937 cells [1]; 24 hr, 100 nM UCN-01, 10 μM LY294002, FIG. 14) | clonogenic survival (colonies, normalized to control unirradiated cells = 100%) (DU145 cells; DU145, 2 Gy) [%] | clonogenic survival (colonies, normalized to control unirradiated cells = 100%) (DU145 cells; DU145, mock irradiated) [%] | clonogenic survival (colonies, normalized to control unirradiated cells = 100%) (MCF7 cells; MCF7, 2 Gy) [%] | clonogenic survival (colonies, normalized to control unirradiated cells = 100%) (MCF7 cells; MCF7, mock irradiated) [%] | clonogenic survival (colonies, normalized to control unirradiated cells = 100%) (T47D cells) [%] | clonogenic survival (colonies, normalized to control unirradiated cells = 100%) (MDA-MB-231 cells; 2 Gy) [%] | clonogenic survival (colonies, normalized to control unirradiated cells = 100%) (MDA-MB-231 cells; mock irradiated) [%] | plasma half-life [5] |
| --- | --- | --- | --- | --- | --- | --- | --- | --- | --- | --- | --- | --- | --- | --- |
| O=C(NOCC1CC1)c1ccc(F)c(F)c1Nc1ccc(I)cc1Cl [PD184352] | 1.8 ± 0.1% and 2.1 ± 0.1% | 10 | 40% | little effect on the cell cycle distribution | modest decline | – | – | – | – | – | – | – | – | – |
| CN[C@@H]1C[C@H]2O[C@@](C)([C@@H]1OC)n1c3ccccc3c3c4c(c5c6ccccc6n2c5c31)C(=O)N[C@H]4O [UCN-01, 7-hydroxystaurosporine] | – | 10 | very modest effect | primarily depleted the G2 M population | no effect | about 20% | 68 ± 2 | 82 ± 4 | 44 ± 3 | 69 ± 6 | 103 ± 8 | 55 ± 2 | 97 ± 3 | very long plasma half-life |
